Source: patent US20160160224A1, “CRYPTOSPORIDIUM TRANSFECTION METHODS AND TRANSFECTED CRYPTOSPORIDIUM CELLS” (UNIVERSITY OF GEORGIA RESEARCH FOUNDATION, INC., priority 2013, published 2016)

System: C. parvum
Assay: Nluc luciferase assay of transfected C. parvum cultured in HCT-8 cells in the presence of drug
Assay type: cell-based, Cryptosporidium parvum
Settings: electroporated (Nluc-transfected) C. parvum grown in paramomycin on HCT-8 host cells; FIG. 3D
Description: Next, we performed transfections and then cultured the transfected parasites in the presence of paramomycin, a drug that reduces growth of C. parvum but not the mammalian host cell. […] (FIG. 3D). We also tested an Nluc plasmid that lacks the Cryptosporidium promoter but carries Toxoplasma flanking sequences instead. […] Lastly, we tested whether parasite vectors can transduce host cells by deliberately delivering plasmid DNA into the HCT-8 host cell cytoplasm by lipofection. […] Collectively these measurements confirm that Apicomplexa and mammals have divergent primary sequence elements that drive transcription and subsequent RNA processing. Cryptosporidium transfection therefore depends on the introduction of a parasite species specific vector into viable parasites. Moreover, passive DNA delivery into the host is not relevant for activity and host cells are not transfected even when DNA is deliberately introduced into the host. […]
For in vitro experiments, cells were scraped from T-25 flasks or 24-well plates and collected after 48 hours of incubation. […] After five minutes of incubation at room temperature, the cell lysate was added to white 96 well plates and luminescence was measured on a luminometer (BioTek Instruments, Inc., Winooski, Vt.). The read out was quantified in terms of relative luminescence units (RLU).

NC[C@@H]1O[C@H](O[C@H]2[C@@H](O)[C@H](O[C@@H]3[C@@H](O)[C@H](N)C[C@H](N)[C@H]3O[C@H]3O[C@H](CO)[C@@H](O)[C@H](O)[C@H]3N)O[C@@H]2CO)[C@H](N)[C@@H](O)[C@@H]1O [Paramomycin, paramomycin]
Nluc expression (luciferase activity): reduction of Nluc expression
